≈ marks a conversion by molar mass, not a printed value. Structures can show the parent of a compound that is named as a salt. Where two headings read alike, the source gives them in different places.
Experiments:
[1] = Solubility in various organic solvents; assay type: physicochemical
Procedure: Solubility in various organic solvents was measured using the following protocol. Approximately 10 mg portions of para-topolin and crystalline para-topolin mesylate salt were placed in different vials, separately. Five volume aliquots of each solvent were added exclusively to a vial. Between each addition, the mixture was checked for dissolution and if no dissolution was apparent, the procedure was continued until dissolution was observed or further volumes had been added.

[2] = test system: Human diploid fibroblast BJ; test: MTT cytotoxicity assay in normal fibroblasts; assay type: cell-based; details: 72 hours
Procedure: MTT (metabolic tetrazolium toxicity) assay is a standard colorimetric assay for evaluation of cytotoxicity. Mitochondrial dehydrogenase activity converts yellow MTT into violet formazan which is measured by means of spectrometry. Human diploid fibroblast BJ (passage 18-22) were seeded into 96-well plate (5.000 cells per well). After 6 hours cultivation medium (DMEM with 5 g/l glucose, 2 mM glutamine, 100 U/ml penicillin, […] streptomycin, 10% fetal calf serum and sodium bicarbonate) was replaced with the cultivation medium containing test compounds in concentration range of 0-200 μM. Highest concentration was adjusted if the solubility of the compound was limiting. Every concentration was tested in pentaplicate. MTT was added to the cells after 72 hours incubation (final concentration 0.5 mg/ml) and incubation continued for another 3 hours. MTT was solubilised by DMSO and absorbance at 570 nm was measured. Growth inhibition (GI) was estimated using the following equitation: GI=(mean A drug exposed wells-mean Ablank/mean Acontrol wells−mean Ablank)×100%. The GI20 value, the drug concentration causing 20% decrease in mitochondrial dehydrogenase activity, was calculated from the obtained dose response curves.

[3] = test system: Senescent human diploid fibroblasts; test: Senescent cells (beta-galactosidase X-gal staining) in human fibroblast culture; assay type: cell-based
Procedure: Senescent human diploid fibroblasts (cells of different levels of passage: passage 20-P20; passage 40—labeled P40; passage 80—labeled P80) were seeded in a 24-well plate (10,000 cells/well). The culture medium (DMEM containing 5 g/l glucose, 2 mM glutamine, 100 U/ml penicillin, 100 μg/ml streptomycin and 10% fetal calf serum) was removed and replaced with culture medium containing test compound in a concentration range of 0 to 12.5 μM. Each concentration was tested in triplicate. The cells were then incubated at 37° C. […] In this experiment, senescent cells, but not other cells, were stained blue due to β-galactosidase on the substrate. […] In the oldest cells, there were only blue cells, from bright blue to almost opaque in color. Both para-topolins (base and mesylate salt) were effective in maintaining much lower levels of senescent cells after 80 passages. In the case of long-term culture, the treated cells were able to live 30% longer than the control cells.

[4] = ORAC (Oxygen Radical Absorbance Capacity), ability to scavenge free radicals; assay type: biochemical; details: n = 3
Procedure: The ability of the substance to scavenge free radicals in vitro was determined using the ORAC (Oxygen Radical Absorbance Capacity) method. Briefly, 100 μl of fluorescein ([…]) and 25 μl of tested substance solution were pipetted into each well of a 96-well microtiter plate preheated to 37° C. The reaction itself was started by the addition of 25 μL 250 mM AAPH. After shaking for 5 s, the fluorescence (Ex. 485 nm, Em. 510 nm) was read every 3 min for 90 min using an Infinite 200 instrument (TECAN, Switzerland). The area under the curve was used to express the antioxidant capacity relative to trolox, which is used as a standard. […] Such activities are likely to be closely related to the electron-rich C6-hydroxybenzylamino substituent system.

Rat glioma C6 cells = test: Anti-inflammatory activity: isoproterenol-induced intracellular cAMP synthesis; assay type: cell-based
Procedure: The anti-inflammatory activity of para-topolin and para-topolin mesylate was determined; cytokinin kinetin was also evaluated as a control. Rat glioma C6 cells (ATCC No. CCL107) were cultured in a monolayer in chemically defined beser medium containing Ham's F10/minimal essential medium (1:1 v/v), 2 mM L-glutamine, 1% (v/v). Minimum vitamins of essential medium (100×), 1% (v/v) minimum essential amino acids (100×), 100 U/ml penicillin, […] streptomycin and 30 nM sodium selenite. Incubation was performed at 37° C. in a 100% humidified atmosphere. The assays were performed in logarithmic growth phase at a density of 2.5×10^5 cells/cm^2. Intracellular cAMP synthesis was induced by the addition of 5 mM (−)-isoproterenol; at the same time, various concentrations of tested compounds were added at the same time as (−)-isoproterenol. After 30 minutes of incubation, the cellular amount of CAMP was determined by ELISA (cAMP-enzyme immunoassay from Amersham). IC50 values were determined from the […] dose-response curve.

[5] = test system: Salmonella typhimurium strain TA 98, TA 100, TA 1535, TA 1537 and Escherichia coli strain WP2 avrA; test: Ames test (bacterial reverse mutation assay); assay type: cell-based; details: 10-1000 μg per plate, with and without metabolic activation (rat liver supernatant)
Procedure: Para-topolin and para-topolin mesylate were tested for mutagenicity by a bacterial reverse mutation assay. The performance of the test was based on the EU method B.13/14 Mutagenicity-Reverse mutation test using bacteria, Council Regulation (EC) No. 440/2008, which is analogous to the OECD Test Guideline No. 471. Four indicators of Salmonella typhimurium strain TA 98, TA 100, TA 1535, TA 1537 were used and one Escherichia coli strain WP2 avrA was also used. The test substances were dissolved in dimethyl sulfoxide (DMSO) and tested at doses of 10-1000 μg per plate, which was applied to 0.1 ml plates. The experiments were performed with metabolic activation with rat liver supernatant and cofactor mixture as well as without metabolic activation.

[6] = isoproterenol-induced cAMP, C6 cells

Compound: Oc1ccc(CNc2ncnc3nc[nH]c23)cc1 [para-topolin mesylate, 6-(4-hydroxybenzylamino) purine (para-topolin) mesylate (methylsulphonate)]
- Solubility ([1]; DMF, listed as p-topolin mesylate): 14000 µg/mL
- Solubility ([1]; DMSO, listed as p-topolin mesylate): 10000 µg/mL
- Solubility ([1]; acetone, listed as p-topolin mesylate): 330 µg/mL
- Solubility ([1]; acetonitrile): <250 µg/mL
- Solubility ([1]; ethanol, listed as p-topolin mesylate): 400 µg/mL
- Solubility ([1]; heptane): <100 µg/mL
- Solubility ([1]; methanol, listed as p-topolin mesylate): 5000 µg/mL
- Cytotoxicity for Human Diploid Fibroblasts GI20 ([2]; listed as 6-(4-hydroxybenzylamino)purine mesylate (para-topolin mesylate)): >167 µM
- Senescent cells (%) ([3]; cell passage P20, listed as 6-(4-hydroxybenzylamino)purine mesylate (para-topolin mesylate)): 3%
- Senescent cells (%) ([3]; cell passage P40, listed as 6-(4-hydroxybenzylamino)purine mesylate (para-topolin mesylate)): 12%
- Senescent cells (%) ([3]; cell passage P80, listed as 6-(4-hydroxybenzylamino)purine mesylate (para-topolin mesylate)): 21%
- ORAC Average(TE), Trolox equivalents on equimolar basis ([4]; listed as 6-(4-hydroxybenzylamino)purinium mesylate (pT mesylate)): 21.436 TE
- Anti-inflammatory activity (in words) (Rat glioma C6 cells; [6]): showed anti-inflammatory activity
- Anti-inflammatory activity relative to free base para-topolin (Rat glioma C6 cells; [6]): twice more active
- Mutagenicity [5]: non-mutagenic

Compound: Oc1ccc(CNc2ncnc3nc[nH]c23)cc1 [para-topolin, 6-(4-Hydroxybenzylamino) purine]
- Solubility ([1]; DMF, listed as p-topolin): 5000 µg/mL (≈ 20700 µM)
- Solubility ([1]; DMSO, organic solvent or mixture, thermodynamic from solid, DMSO, read-out: Solubility): 6660 µg/mL (≈ 27600 µM)
- Solubility ([1]; acetone, organic solvent or mixture, thermodynamic from solid, acetone, read-out: Solubility): 200 µg/mL (≈ 829 µM)
- Solubility ([1]; acetonitrile, organic solvent or mixture, thermodynamic from solid, acetonitrile, read-out: Solubility): < 250 µg/mL
- Solubility ([1]; ethanol, organic solvent or mixture, thermodynamic from solid, ethanol, read-out: Solubility): 250 µg/mL (≈ 1040 µM)
- Solubility ([1]; heptane, organic solvent or mixture, thermodynamic from solid, heptane, read-out: Solubility): < 100 µg/mL
- Solubility ([1]; methanol, listed as p-topolin): 250 µg/mL (≈ 1040 µM)
- Cytotoxicity for Human Diploid Fibroblasts GI20 ([2]; listed as 6-(4-hydroxybenzylamino)purine (para-topolin)): 138 µM
- Senescent cells (%) ([3]; cell passage P20, listed as 6-(4-hydroxybenzylamino)purine (para-topolin)): 4%
- Senescent cells (%) ([3]; cell passage P40, listed as 6-(4-hydroxybenzylamino)purine (para-topolin)): 14%
- Senescent cells (%) ([3]; cell passage P80, listed as 6-(4-hydroxybenzylamino)purine (para-topolin)): 25%
- ORAC Average(TE), Trolox equivalents on equimolar basis ([4]; listed as 6-(4-hydroxybenzylamino)purine (pT)): 16.799 TE
- IC50 (Rat glioma C6 cells; Rattus norvegicus, C6, 0.5 h, 5 mM (−)-isoproterenol, 30 minutes, cAMP by ELISA): 7 µM
- Anti-inflammatory activity (in words) (Rat glioma C6 cells; [6]): showed anti-inflammatory activity
- Mutagenicity [5]: non-mutagenic
